Values of other authors, collected in patent publication US11724007B2, “Operating room coating applicator and method” (Ethicon, Inc., priority 2018, dated 2023).

System: S. aureus
Details: measured in a suitable growth medium; described by Bhargava, H. et al, American Journal of Infection Control, June 1996

## Oc1cc(Cl)ccc1Oc1ccc(Cl)cc1Cl [triclosan, 2,4,4′-trichloro-2′-hydroxydiphenyl ether]
  minimum inhibitory concentration (MIC) against S. aureus: 0.01 ppm
